Laboratory results as given in patent US12049646B2, “SC-beta cells and compositions and methods for generating the same” (President and Fellows of Harvard College, priority 2013, dated 2024).

How the values were obtained:
Format in all cases: cell-based, human
[1] = test system: SC-β cells; test: Insulin secretion of plated SC-β cells treated with anti-diabetic drugs in 2 and 20 mM glucose; conditions: drug-treated versus control
Description: The inventors first tested whether SC-β cells could respond to existing anti-diabetic drugs from several different classes (FIG. 16B). LY2608204 is glucokinase activator in clinical trials while liraglutide, tolbutamide, and nateglinide are examples of GLP-1 agonists and secretagogues (sulfonylureas and meglitinides), respectively, that have been used clinically (Matschinsky, 2009; Modi, 2007; Vetere et al., 2014).

[2] = test system: hPSC derived cells; test: Protocol modifications at Steps 3-6: cell survival and marker-positive populations; conditions: for cell survival: treatment during Steps 3-5 of differentiation
Description: One challenge for the stem cell field has been generating a sufficient quantity of SC-β cells that can be useful for drug screening, disease modeling, or therapeutic use. For example, hES cells are technically difficult to culture, are vulnerable to apoptosis upon cellular detachment and dissociation, undergo massive cell death particularly after complete dissociation, and have low cloning efficiency. (Watanabe, K. et al., Nature Biotechnology 25, 681-686 (2007)). As a result, the quantity of viable SC-β cells yielded may be low. By modify the protocol between Steps 3 and 6 in the manner shown in FIG. 15A, more pure NKX6.1+ endocrine clusters can be generated (FIG. 15B) leading to more SC-β cells that can be therapeutically useful.
In Steps 3-5, for instance, cell survival can be improved by adding a rho-associated protein kinase inhibitor, or a Rock inhibitor. It is believed that the addition of a Rock inhibitor enhances survival of ES cells by preventing dissociation-induced apoptosis thus increasing their cloning efficiency. (Watanabe et al.) Examples of Rock inhibitors include, but are not limited to, Y-27632, Fasudil/HA1077, and H-1152.
In addition to treating the cells with a Rocki inhibitor, the cells in Steps 3-4 can be treated with ActivinA alone or in combination with Nicotinamide. […] Since SOX2 and NKX6-1 are mutually exclusive (FIG. 15E), down-regulation of SOX2 results in the up-regulation of NKX6-1, a marker for a mature pancreatic β cell.
In Steps 5-6, cell survival can further be enhanced by treating cells with staurosporine. Staurosporine is known to be an activator of neuronal, glial, and stem cell-like neurosphere differentiation and is also thought to induce apoptosis. (Schumacher, et al., Mol. Cell. Neurosci. 2003; 23(4): 669-680).
Finally, cell survival can further be enhanced by treating cells with a culture medium containing Alk5i, T3 in combination with XXI, a γ-secretase inhibitor that improves β cell maturation.
Cells were dispersed into single-cell suspension by incubation in TrypLE Express at 37° C. for 10-30 min in a 15 ml falcon tube. Starting at stage 5, clusters take longer to dissociate into single cells. Clusters should be incubated with TrypLE Express until they dissociate to single cells upon mixing by pipetting gently up and down with a P1000. The TrypLE Express was quenched with 3-4 times media and cells were spun down for 5 min at 1000 rpm. Cells were washed twice in PBS and transferred to a 1.7 ml Safe seal microcentrifuge tube (Bioscience Inc.; 11510). Make sure having 1-10 mio cells/tube and use 0.5-1 ml volumes in the following. Cells were resuspended in 4% paraformaldehyde (PFA) (Electron Microscopy Science Nm; 15710) and incubated on ice for 30 min. Cells were then washed 3 times in PBS followed by incubation in blocking buffer (PBS+0.1% TritonX100 (VWR; EM-9400)+5% donkey serum (Jackson Immunoresearch; 017-000-121)) on ice for 1 hour. After fixation cells are more resistant to centrifugation, so after fixation all centrifugations were done at 3000 g for 3 min. Cells were then resuspended in blocking buffer with primary antibodies and incubated at 4° C. overnight. […]

[3] = test system: SC-β cells; test: GSIS of SC-β cells after adding factors to the CMRL media at the last differentiation step (Stage 6); conditions: factor added to CMRL media containing Alk5 inhibitor and T3 hormone, versus CMRL only, CMRL+Alk5 inhibitor+T3 or S3+Alk5 inhibitor+T3; for stimulation index (ratio of insulin secreted in high glucose to low glucose): 15 mM vs 2.5 mM glucose
Description: To induce the in vitro maturation of at least some of the Pdx1-positive, NKX6-1-positive, insulin-positive endocrine cells into SC-β cells, the Pdx1-positive, NKX6-1-positive, insulin-positive endocrine cells are maintained in a suitable culture medium for a sufficient period of time. […] Adding additional factors to the CMRL media at the last step of differentiation (Stage 6) (FIG. 14A), however, was also found to generate a better glucose stimulated insulin secretion (GSIS) response by SC-β cells as measured by either stimulation index between high and low glucose challenges or by the amount of insulin released. Such additional factors may include, but are not limited to, Sant1, XXI, and SSP. The stimulation index, as calculated by the ratio of insulin secreted in high glucose (15 mM) to low glucose (2.5 mM), was greater for the SC-β cells maintained in a CMRL media containing Alk5 inhibitor, T3 hormone and either Sant1, XXI or SSP than those SC-β cells maintained in only CMRL media, CMRL media containing Alk5 inhibitor and T3 hormone, or S3 media containing Alk5 inhibitor and T3 hormone (FIG. 14B). Furthermore, the amount of insulin secreted was greater for the SC-β cells maintained in a CMRL media containing Alk5 inhibitor, T3 hormone and either Sant1, XXI or SSP than those SC-β cells maintained in only CMRL media, CMRL media containing Alk5 inhibitor and T3 hormone, or S3 media containing Alk5 inhibitor and T3 hormone (FIG. 14C).
Alternatively, Days 21-35: CMRLS+10 μM Alk5i II+1 μM T3+Sant1.
Alternatively, Days 21-35: CMRLS+10 μM Alk5i II+1 μM T3+XXI.
Alternatively, Days 21-35: CMRLS+10 μM Alk5i II+1 μM T3+SSP.

O=C(Nc1ncc(SCCN2CCCC2)s1)[C@]1(c2ccc(S(=O)(=O)C3CC3)cc2)C[C@H]1C1CCCCC1 [LY2608204]
insulin secretion of SC-β cells following a glucose challenge [1]: trend toward responding to treatment with these drugs by increasing insulin secretion

NC(=O)c1cccnc1 [Nicotinamide]
cell survival [2]: improve cell survival

Cc1nn(-c2ccccc2)c(C)c1/C=N/N1CCN(Cc2ccccc2)CC1 [Sant1]
stimulation index (ratio of insulin secreted in high glucose to low glucose) [3]: greater | amount of insulin secreted [3]: greater

C[C@H](NC(=O)Cc1cc(F)cc(F)c1)C(=O)N[C@H]1N=C(c2ccccc2)c2ccccc2N(C)C1=O [XXI]
NeuroD1+ population ([2]; added to medium with Alk5i and T3 at Steps 5 and 6, versus Alk5i and T3 only): increase the NeuroD1+ population | stimulation index (ratio of insulin secreted in high glucose to low glucose) [3]: greater | amount of insulin secreted [3]: greater

CC(C)[C@H]1CC[C@H](C(=O)N[C@H](Cc2ccccc2)C(=O)O)CC1 [nateglinide]
insulin secretion of SC-β cells following a glucose challenge [1]: trend toward responding to treatment with these drugs by increasing insulin secretion

CN[C@@H]1C[C@H]2O[C@@](C)([C@@H]1OC)n1c3ccccc3c3c4c(c5c6ccccc6n2c5c31)C(=O)NC4 [staurosporine]
percentage of Chromogranin A (pancreatic endocrine cell marker) ([2]; treatment in Steps 5-6): increasing the percentage of Chromogranin A | percentage of NKX6-1/C-peptide+ cells ([2]; treatment in Steps 5-6): increasing the percentage of NKX6-1.C-peptide+ cells

CCCCNC(=O)NS(=O)(=O)c1ccc(C)cc1 [tolbutamide]
insulin secretion of SC-β cells following a glucose challenge [1]: trend toward responding to treatment with these drugs by increasing insulin secretion

B1: Activin A: growth factor from the TGF-β superfamily (protein, UniProt P08476 311-426, looked up)
Inhibin beta A chain: GLECDGKVNICCKKQFFVSFKDIGWNDWIIAPSGYHANYCEGECPSHIAGTSGSSLSFHSTVINHYRMRGHSPFANLKSCCVPTKLRPMSMLYYDDGQNIIKKDIQNMIVEECGCS
modifications: Inhibin beta A chain
notes: growth factor from the TGF-β superfamily
cell survival [2]: improve cell survival
